Results: patent US20230416299A1, “COMPOUND AND METHOD FOR THE TREATMENT AND DIAGNOSIS OF NEURODEGENERATIVE CONDITIONS” (Swansea University, priority 2013, published 2023)

Columns and labels:
Lxrα = biological target: T1, Lxrα (Homo sapiens, UniProt Q13133); assay: Lxr-responsive luciferase reporter assay (Lxre + Lxrα) in SN4741 neural cells; assay type: cell-based, mouse; conditions: for Lxrα activation, luciferase activity: 10 μM, 24 h
T1 construct: expressed in transfected cells; host or cells: SN4741 mouse neuronal cell line
T1 sequence (Q13133 1-447): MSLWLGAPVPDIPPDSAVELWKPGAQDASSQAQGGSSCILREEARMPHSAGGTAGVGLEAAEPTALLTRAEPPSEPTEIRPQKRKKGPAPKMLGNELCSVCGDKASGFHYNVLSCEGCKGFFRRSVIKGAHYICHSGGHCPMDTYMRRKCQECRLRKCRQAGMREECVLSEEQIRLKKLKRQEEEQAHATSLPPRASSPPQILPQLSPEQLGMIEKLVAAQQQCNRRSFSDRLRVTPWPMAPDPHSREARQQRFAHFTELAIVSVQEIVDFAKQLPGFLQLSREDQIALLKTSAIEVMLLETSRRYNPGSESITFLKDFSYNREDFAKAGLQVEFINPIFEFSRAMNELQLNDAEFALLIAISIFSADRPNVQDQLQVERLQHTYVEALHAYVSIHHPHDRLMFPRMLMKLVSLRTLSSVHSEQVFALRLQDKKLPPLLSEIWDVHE
Excerpt: (§1) Luciferase Reporter Assay.

Lxrβ = biological target: T2, Lxrβ (Homo sapiens, UniProt P55055); assay: Lxr-responsive luciferase reporter assay (Lxre + Lxrβ) in SN4741 neural cells; assay type: cell-based, mouse; conditions: SN4741 cells, 10 μM, 24 h
T2 construct: expressed in transfected cells; host or cells: SN4741 mouse neuronal cell line
T2 sequence (P55055 1-460): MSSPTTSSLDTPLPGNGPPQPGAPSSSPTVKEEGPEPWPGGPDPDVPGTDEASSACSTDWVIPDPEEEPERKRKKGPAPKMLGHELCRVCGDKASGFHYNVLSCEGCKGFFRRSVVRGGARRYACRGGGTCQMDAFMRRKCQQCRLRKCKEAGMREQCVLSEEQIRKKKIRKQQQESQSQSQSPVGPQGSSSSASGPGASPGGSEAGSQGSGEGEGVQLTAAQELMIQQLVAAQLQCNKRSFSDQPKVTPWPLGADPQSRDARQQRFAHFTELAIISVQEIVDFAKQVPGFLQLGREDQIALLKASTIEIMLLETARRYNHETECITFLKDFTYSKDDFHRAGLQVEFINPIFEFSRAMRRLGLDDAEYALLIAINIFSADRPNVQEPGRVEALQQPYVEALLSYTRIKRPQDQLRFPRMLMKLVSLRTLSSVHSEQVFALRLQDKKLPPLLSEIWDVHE
Excerpt: as §1

[1] = tested on: Islet-1:GFP transgenic zebrafish embryos; assay type: in vivo; conditions: 10 μM
Experimental: Quantitative PCR. Total RNA was extracted from SN4741 cells and zebrafish treated with the compounds of interest using the RNeasy Mini Kit (Qiagen), 1 μg was treated with RQ1 RNase-free DNase (Promega) and reverse transcribed using Superscript II Reverse Transcriptase (Invitrogen) and random primers (Invitrogen) (RT+ reaction). Parallel reactions without reverse transcriptase enzyme were done as a control (RT− reaction), and Sybergreen real-time quantitative PCR assays were performed. Expression levels were obtained by normalization with the value of the housekeeping gene encoding actin obtained for every sample in parallel assays.
Zebrafish Strain and Mainrenance Zebrafish were raised on a 14/10 h day/night cycle and were kept at 28.5° C. Islet-1:GFP transgenic embryos were obtained via natural spawning and staged in hours or days post fertilization (hpf and dpf) according to Kimmel et al). Embryos older than 24 hpf were treated with 0.03% phenylthiourea (PTU) to inhibit pigmentation. MO injections were performed using splice site specific zebrafish 1xr MO. MO injected embryos were immediately dechorionated and transferred to a 96 well plate and exposed to dimethyl sulfoxide (DMSO) treated or ligand treated medium.
Compound Exposure. Islet-1:GFP embryos were collected by natural mating and immediately (at 1 cell stage) dechorionated and transferred to a 96 well plate. Each of the compounds tested were obtained as 10 mM stock and diluted in embryo medium to a final concentration of 10 μM, and 200 μL was added to each well. DMSO or propan-2-ol treated embryo medium was taken as control. Ligand solutions were replaced every 12 h with fresh ligand solution prepared in PTU treated embryo medium. Embryos were collected at 48 hpf, fixed for 4 h at room temperature with 4% paraformaldehyde and then washed and kept in PBST. Immunocytochemistry was performed using an anti-GFP antibody and fluorescence was viewed and photographed using a Zeiss Axioplan compound microscope and a Zeiss Axiocam digital camera.

[2] = tested on: mouse E11.5 brain primary cultures; assay: Mouse E11.5 brain primary cultures (Islet1+, active caspase 3+, BrdU, Nkx6.1 counts); assay type: cell-based; conditions: for Number of Islet1+ cells: wild type cultures, 3 DIV
Experimental: Primary Brain Cultures. Brains from E11.5 mice were manually dissected, plated on poly-D-lysine (150,000 cells/cm2) and grown in serum-free N2 media consisting of 1:1 mixture of F12 and DMEM with 10 ng/mL insulin, 100 μg/mL apo-transferrin, 100 μM putrescine, 20 nM progesterone, 30 nM selenium, 6 mg/mL glucose, and 1 mg/mL BSA. Cells were treated for 3 days in vitro (DIV) with the compounds of interest, fixed with 4% PFA and processed for staining using appropriate antibodies.
For BrdU analysis, cells were treated with BrdU one hour after plating and media was replaced with fresh medium after 16 h. After a further 2 days in culture, cells were treated for 30 min with 2N HCl and then immunocytochemistry was performed to evaluate the number of double BrdU+;Islet1+ cells (a measure of motor neuron neurogenesis). Hoechst staining was performed by permeabilizing cells with a 0.3% Triton-X 100/PBS solution for 5 min followed by incubation with Hoechst 33258 (Sigma) for 10 min.
Antibodies and Detection Procedures. Cells were fixed in 4% PFA, washed in PBS and blocked in 5% normal goat serum/PBS for 1 h at room temperature. Primary antibodies were diluted in PBS (pH 7.4), 0.3% Triton X-100, 1% BSA and incubations were carried out overnight at +4° C. or at room temperature for 2 h. The antibodies used were anti-: BrdU (1:400; Abeam), Islet-1 (1:100; Developmental Studies Hybridoma Bank), cleaved caspase-3 (Asp175) (1:100; Cell Signaling Technology), tyrosine hydroxylase (TH;1:1000; Pel-Freeze) GABA (1:1,000; Sigma), Brn3a (1:250; Millipore), Nkx6.1 (1:200; Novus Biologicals), choline acetyltransferase (ChAT; 1:500; Millipore) and appropriate secondary antibodies (Jackson ImmunoResearch or Alexa). Cells positive for the corresponding marker were counted directly at the microscope at a magnification of 20 x. Cells were counted in every well, in eight consecutive fields (going from one side of the well to the other, passing through the center), in three different wells per experiment and in three different experiments per condition. Random pictures of the wells were taken for every condition to document the result, and representative pictures were subsequently selected to represent the quantitative data. Photos were acquired with a Zeiss Axioplan microscope and a Hamamatsu camera C4742-95 using the Openlab software.

Compound | Lxrα activation, luciferase activity (Lxrα) | Lxrβ activation, luciferase activity (Lxrβ) | other results
CC(CCC[C@@H](C)[C@H]1CC[C@H]2[C@@H]3C(=O)C=C4C[C@@H](O)CC[C@]4(C)[C@H]3CC[C@]12C)C(=O)O (stereo partly drawn) [3βH, 7O-CA, 3β-hydroxy-7-oxocholest-5-en-26-oic acid] | have the ability to activate both Lxrs | have the ability to activate both Lxrs | Islet-1 mRNA and protein level (qPCR, western blot) [1]: increase in the level of Islet-1 mRNA and protein; abca1 mRNA expression in vivo [1]: enhanced expression of abca1; Islet-GFP expression in cranial nerves ([1]; 48 hpf): increased Islet-GFP expression; Number of Islet1+ cells in cranial nerves (III, IV, V, VII, X) ([1]; 48 hpf): no significant effect on the number of Islet1+ cells; Islet-GFP levels after lxr morpholino (MO) injection ([1]; lxr MO vs control scrambled MO): abolished the in vivo increase in Islet-GFP levels; Number of other midbrain neurons (TH+ dopamine, GABAergic, red nucleus) [2]: did not affect the number of other midbrain neurons; Number of Islet1+ cells [2]: increased the number of Islet1+ oculomotor cells in the cultures; Effect on Islet1+ cells with Lxr antagonist GGPP ([2]; wt cultures, GGPP 10 μM): blocked by the Lxr antagonist GGPP; Number of active caspase-3+ cells ([2]; wt cultures, 10 μM 3β,7α-diHCA, 3βH,7O-CA, 25-HC, low concentrations of 3β,7β-diHCA, 3β-HCA): did not affect the number of active caspase-3+ cells
CC(C)CCC[C@@H](C)[C@H]1CC[C@H]2[C@@H]3CC[C@H]4CC(=O)CC[C@]4(C)[C@H]3CC[C@]12C [5α-cholestan-3-one] | None of these compounds showed significant activity |  | 
CC(C)CCC[C@@H](C)[C@H]1CC[C@H]2[C@@H]3CC[C@H]4C[C@@H](O)CC[C@]4(C)[C@H]3CC[C@]12C [5α-cholestan-3β-ol] | None of these compounds showed significant activity |  | 
CC(C)CCC[C@@H](C)[C@H]1CC[C@H]2[C@@H]3[C@H](O)CC4=CC(=O)CC[C@]4(C)[C@H]3C[C@H](O)[C@]12C [7α,12α-diHCO, 7α,12α-Dihydroxycholest-4-en-3-one] | None of these compounds showed significant activity |  | 
CC(CO)CCC[C@@H](C)[C@H]1CC[C@H]2[C@@H]3[C@H](O)C=C4C[C@@H](O)CC[C@]4(C)[C@H]3CC[C@]12C (stereo partly drawn) [7α,26-diHC, cholest-5-ene-3β,7α,26-triol] | none of which was found to show significant activity | none of which was found to show significant activity | 
CC(CO)CCC[C@@H](C)[C@H]1CC[C@H]2[C@@H]3[C@H](O)CC4=CC(=O)CC[C@]4(C)[C@H]3CC[C@]12C (stereo partly drawn) [7α,26-diHCO, 7α,26-dihydroxycholest-4-en-3-one] | none of which was found to show significant activity | none of which was found to show significant activity | 
CC(C)CCC[C@@H](C)[C@H]1CC[C@H]2[C@@H]3[C@H](O)C=C4C[C@@H](O)CC[C@]4(C)[C@H]3CC[C@]12C [7α-HC, Cholest-5-ene-3β,7α-diol] | None of these compounds showed significant activity |  | 
CC(C)CCC[C@@H](C)[C@H]1CC[C@H]2[C@@H]3[C@H](O)CC4=CC(=O)CC[C@]4(C)[C@H]3CC[C@]12C [7α-HCO, 7α-Hydroxycholest-4-en-3-one] | None of these compounds showed significant activity |  | 
CC(CCC[C@@H](C)[C@H]1CC[C@H]2[C@@H]3[C@H](O)CC4=CC(=O)CC[C@]4(C)[C@H]3CC[C@]12C)C(=O)O (stereo partly drawn) [7αH,3O-CA, 7α-hydroxy-3-oxocholest-4-en-26-oic acid] | none of which was found to show significant activity | none of which was found to show significant activity | abca1 mRNA expression in vivo [1]: not; Islet-GFP expression in cranial nerves ([1]; 48 hpf): failed to regulate Islet-GFP expression
CC(C)CCC[C@@H](C)[C@H]1CC[C@H]2[C@@H]3[C@@H](O)C=C4C[C@@H](O)CC[C@]4(C)[C@H]3CC[C@]12C [7β-HC, Cholest-5-ene-3β,7β-diol] | None of these compounds showed significant activity |  | 
CC(CCC[C@@H](C)[C@H]1CC[C@H]2[C@@H]3[C@@H](O)CC4=CC(=O)CC[C@]4(C)[C@H]3CC[C@]12C)C(=O)O (stereo partly drawn) [7βH,3O-CA, 7β-hydroxy-3-oxocholest-4-en-26-oic acid] | none of which was found to show significant activity | none of which was found to show significant activity | 
CC(C)CC[C@@H](O)[C@@H](C)[C@H]1CC[C@H]2[C@@H]3CC=C4C[C@@H](O)CC[C@]4(C)[C@H]3CC[C@]12C [22R-HC, 22R-hydroxycholesterol, reference compound] |  |  | Lxr luciferase activity with the Lxr antagonist GGPP (Lxrα; metabolite 10 μM + GGPP 10 μM): similarly blocked; Number of Islet1+ cells [2]: does not show an effect towards Islet1+ cells
CC(C)[C@@H](O)CC[C@@H](C)[C@H]1CC[C@H]2[C@@H]3CC=C4C[C@@H](O)CC[C@]4(C)[C@H]3CC[C@]12C [24S-HC, Cholest-5-ene-3β,24S-diol] | activate Lxr | activate Lxr | 
C[C@@H](CO)CCC[C@@H](C)[C@H]1CC[C@H]2[C@@H]3CC=C4C[C@@H](O)CC[C@]4(C)[C@H]3CC[C@]12C [26-HC, cholest-(25R)-5-ene-3β,26-diol] | no a significant effect | no a significant effect | Number of Islet1+ cells [2]: no effect on the number of Islet1+ cells
CC(C)CCC[C@@H](C)[C@H]1CC[C@H]2[C@@H]3CCC4=CC(=O)CC[C@]4(C)[C@H]3CC[C@]12C [cholest-4-en-3-one] | None of these compounds showed significant activity |  | 
CC(C)CCC[C@@H](C)[C@H]1CC[C@H]2[C@@H]3C=CC4=CC(=O)CC[C@]4(C)[C@H]3CC[C@]12C [cholesta-4,6-dien-3-one] | None of these compounds showed significant activity |  | 
